Values quoted from earlier work in patent publication US20090203732A1, “Thiazolones for Use as P13 Kinase Inhibitors” (priority 2006, published 2009).
Read-outs that look alike come from different tables or passages of the source.

How the values were obtained:
CK2 protein kinase = CK2 protein kinase (Homo sapiens, UniProt P68400)
CK2 protein kinase, sequence (P68400 whole entry): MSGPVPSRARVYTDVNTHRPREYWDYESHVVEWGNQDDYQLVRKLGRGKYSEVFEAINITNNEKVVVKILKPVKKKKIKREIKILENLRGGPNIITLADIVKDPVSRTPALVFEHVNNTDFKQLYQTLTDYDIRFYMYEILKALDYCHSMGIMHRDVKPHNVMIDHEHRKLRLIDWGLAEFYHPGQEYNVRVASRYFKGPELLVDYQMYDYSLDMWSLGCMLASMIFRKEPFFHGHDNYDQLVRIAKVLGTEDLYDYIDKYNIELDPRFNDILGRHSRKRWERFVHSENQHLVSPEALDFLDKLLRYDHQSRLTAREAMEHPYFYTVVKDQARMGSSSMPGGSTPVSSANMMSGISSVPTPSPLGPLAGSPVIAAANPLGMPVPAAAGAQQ

SMILES	IC50 (CK2 protein kinase)	IC50 (Class I PI3-kinases; each of the Class I PI3-kinases, Fruman et al. 1998, read-out: IC50 against each of these PI3-kinases)	IC50 (Class I PI3-kinases; each of the four members of Class I PI3-kinases, read-out: IC50 against each of the various Class I PI3-kinases)
O=c1cc(N2CCOCC2)oc2c(-c3ccccc3)cccc12 [LY294002]	5 to 10 µM	15 to 20 µM	
COC[C@H]1OC(=O)c2coc3c2[C@@]1(C)C1=C(C3=O)[C@@H]2CCC(=O)[C@@]2(C)C[C@H]1OC(C)=O [wortmannin]			0.001 to 0.01 µM
